What was measured:
HIV-1-IIIB strain = assay: Anti-HIV activity: protection of HIV-infected MT-4 cells from HIV-induced cytopathy (MTT assay); conditions: for SI(IIIB), selection index (CC50/EC50): HIV-1 IIIB, MT-4 cells; for EC50: Human immunodeficiency virus 1, IIIB, MT4
Description: (§1) The test was performed as follows. […] The toxicity test was performed in parallel with the anti-HIV activity test. […] Moreover, a selection index (SI=[…]) was also calculated.
The anti-HIV activity of the compound to be tested was evaluated by the inhibitory effect on the HIV-induced cytopathy in the cell.
Viruses: HIV-1-IIIB strain and HIV-2 ROD strain.
(§2) The compound to be tested was dissolved in DMSO or water and diluted gradiently with phosphate-buffered saline solution. […] 100 μL of a virus dilution at an appropriate concentration was added, and co-cultured with the MT-4 cells at 37° C. for 1 h. Then, the MT-4 cells were collected, washed three times, resuspended with a culture medium with or without the compound to be tested and cultured at 37° C. and 5% CO2 for 7 d. On the third day of the infection, the culture medium was correspondingly replaced with the culture medium with or without the compound to be tested. Each culture process was repeated twice. The HIV-induced cytopathy was monitored daily with a reverse optical microscope. […] Considering that the DMSO may affect the antiviral activity of the compound to be tested, it is necessary to design a blank control using the same concentration of DMSO.

MT-4 cells = assay: Cytotoxicity in uninfected MT-4 cells (MTT assay); format: cell-based; conditions: Mean ± SD, at least three independent experiments
Description: as §1, §2

[1] = Cytotoxicity in uninfected MT-4 cells (MTT assay); format: cell-based; conditions: human, uninfected MT-4 cells, Mean ± SD, at least three independent experiments
Description: as §1, §2

[2] = prior art; cited from earlier work

Row | Structure (SMILES) | SI(IIIB), selection index (CC50/EC50) (HIV-1-IIIB strain) | EC50 (HIV-1-IIIB strain) [nM] | CC50 (MT-4 cells) [nM] | CC50 at 7 d [1] [nM] | water solubility [2] [µg/mL]
1 | N#Cc1ccc(Nc2nccc(Nc3c(F)cc(-c4cc(Cl)nc(Cl)c4)cc3F)n2)cc1 [compound 10] | 97 | 56 ± 32.6 | 5400 ± 540 |  | 
2 | N#Cc1ccc(Nc2nccc(Nc3c(F)cc(-c4ccc(N)cc4)cc3F)n2)cc1 [compound 23] | >32,895 | 9.2 ± 3.6 | > 303000 |  | 
3 | Cc1ccnc2c1NC(=O)c1cccnc1N2C1CC1 [NVP, Nevirapine, reference compound] |  |  |  | > 15000 | 
4 | Cc1cc(-c2cc(F)c(Nc3ccnc(Nc4ccc(C#N)cc4)n3)c(F)c2)cc(C)n1 [compound 21] | 21 | 56 ± 18 | 1200 ± 110 |  | 
5 | N#Cc1ccc(Nc2nccc(Nc3c(F)cc(-c4ccoc4)cc3F)n2)cc1 [compound 5] | 3291 | 3.2 ± 0.18 | 10600 ± 1800 |  | 
6 | O=C1Nc2ccc(Cl)cc2[C@@](C#CC2CC2)(C(F)(F)F)O1 [EFV, Efavirenz, reference compound] | >1600 | 4 ± 1.5 | > 6330 |  | 
7 | N#Cc1ccc(Nc2nccc(Nc3c(F)cc(-c4ccnc(Cl)c4Cl)cc3F)n2)cc1 [compound 11] | 3673 | 5.5 ± 0.7 | 20000 ± 16000 |  | 
8 | N#Cc1ccc(Nc2nccc(Nc3c(F)cc(-c4ccnc(F)c4F)cc3F)n2)cc1 [compound 17] | >147,059 | 2 ± 0.48 | > 286000 |  | 
9 | N#Cc1ccc(Nc2nccc(Nc3c(F)cc(-c4ccco4)cc3F)n2)cc1 [compound 4] | 7910 | 2.1 | 16600 ± 6900 |  | 
10 | N#Cc1ccc(Nc2nccc(Nc3c(F)cc(-c4ccncc4F)cc3F)n2)cc1 [compound 15] | 2566 | 1.3 ± 0.6 | 3300 ± 1500 |  | 
11 | N#Cc1ccc(Nc2nccc(Nc3c(F)cc(-c4cn[nH]c4)cc3F)n2)cc1 [compound 8] | 298 | 10 ± 6 | 3100 ± 1700 |  | 
12 | N#Cc1ccc(Nc2nccc(Nc3c(F)cc(-c4cccs4)cc3F)n2)cc1 [compound 6] | >74,627 | 4.1 ± 2 | > 308000 |  | 
13 | N#Cc1ccc(Nc2nccc(Nc3c(F)cc(-c4ccsc4)cc3F)n2)cc1 [compound 7] | 14032 | 3.9 ± 1.4 | 55400 ± 18700 |  | 
14 | COc1cc(-c2cc(F)c(Nc3ccnc(Nc4ccc(C#N)cc4)n3)c(F)c2)ccn1 [compound 22] | 501 | 13 ± 2.9 | 6700 ± 980 |  | 
15 | Cc1cc(C#N)cc(C)c1Oc1nc(Nc2ccc(C#N)cc2)nc(N)c1Br [ETR, Etravirine, reference compound] | >1159 | 4 ± 0.68 | > 4600 |  | < 1
16 | Cc1cc(-c2cc(F)c(Nc3ccnc(Nc4ccc(C#N)cc4)n3)c(F)c2)ccn1 [compound 20] | 777 | 4.1 ± 1.1 | 3200 ± 1100 |  | 
17 | N#Cc1ccc(Nc2nccc(Nc3c(F)cc(-c4cccnc4)cc3F)n2)cc1 [compound 2] | 32,698 | 7.4 ± 1.76 | 242000 ± 42000 |  | 
18 | N#Cc1ccc(Nc2nccc(Nc3c(F)cc(-c4coc5ccccc45)cc3F)n2)cc1 [compound 12] | 1991 | 44 ± 10.1 | 87000 ± 54000 |  | 
19 | N#Cc1ccc(Nc2nccc(Nc3c(F)cc(-c4ccnc(Cl)c4)cc3F)n2)cc1 [compound 18] | 622 | 6.8 ± 3.4 | 4200 ± 450 |  | 
20 | N#Cc1ccc(Nc2nccc(Nc3c(F)cc(-c4ccnc(C#N)c4F)cc3F)n2)cc1 [compound 14] | >142,857 | 1.98 ± 0.42 | > 282000 |  | 
21 | N#Cc1ccc(Nc2nccc(Nc3c(F)cc(-c4csc5ccccc45)cc3F)n2)cc1 [compound 13] | 132 | 124 ± 78 | 16000 ± 6000 |  | 
22 | N#Cc1ccc(Nc2nccc(Nc3c(F)cc(-c4ccnc(F)c4)cc3F)n2)cc1 [compound 9] | 1311 | 3.8 ± 3.2 | 5000 ± 900 |  | 
23 | N#Cc1ccc(Nc2nccc(Nc3c(F)cc(-c4ccnc(-c5ccnc(Cl)c5)c4)cc3F)n2)cc1 [compound 19] | 3068 | 16.8 ± 3 | 51000 ± 41000 |  | 
24 | N#Cc1ccc(Nc2nccc(Nc3c(F)cc(-c4cc(F)nc(F)c4)cc3F)n2)cc1 [compound 16] | 1966 | 5.6 ± 1.5 | 11000 ± 6800 |  | 
25 | N#Cc1ccc(Nc2nccc(Nc3c(F)cc(-c4cncnc4)cc3F)n2)cc1 [compound 3] | 229 | 11.9 ± 3.2 | 2700 ± 1700 |  | 

Reference: patent US11912685B2, “Biphenyl diaryl pyrimidine derivative with aromatic heterocyclic structure” (priority 2021, dated 2024)
